From patent US20040058957A1, “Benzothiophene derivatives and herbicidal compositions containing the same” (priority 2000, published 2004)

Assays:
[1] = tested on: Scirpus juncoides; experiment: Submersion test, treatment 10 days after transplantation: herbicidal effect; format: in vivo; details: rated 30 days after application
Method: (§1) A mixture consisting of 57 parts by weight of talc and 40 parts by weight of bentonite as carrier and 3 parts by weight of sodium alkylbenzenesulfonate as surfactant was pulverized and mixed uniformly to obtain a carrier for wettable powder. Each herbicidal composition was prepared by uniformly pulverizing and mixing 90 parts by weight of the carrier for wettable powder and 10 parts by weight of the benzothiophene derivative produced in each example.
(§2) Seeds of Scirpus juncoides were sowed onto paddy field soil in a Wagner pot of 1/2000 are. Then, rice seedlings of 2.5 leaf stage were transplanted in the soil. Water was pored into the pot so as to submerge the soil at a depth of 3 cm. The pot was placed in a greenhouse maintained at 20 to 25° C. for vegetation. After 10 days from transplantation of the rice seedlings, a predetermined amount of the herbicidal composition prepared in the step [1] was applied to the pot. After 30 days from the application of the herbicidal composition, the herbicidal effect and injury to the paddy rice were determined.
(§3) The herbicidal effect and the injury to crops in the above tests (1) and (2) were evaluated based on the following ratings.
(§4) The degree of weed control (%) was calculated from the weights of the above-ground parts of fresh weeds in the treated area and the untreated area using the following equation:
(§5) Degree of weed control (%)=[1−(weight of weeds in treated area)/(weight of weeds in untreated area)]×100
(§6) The herbicidal effect was determined according to the following ratings: […]

[2] = tested on: paddy rice; experiment: Submersion test, treatment 3 days after transplantation: injury to paddy rice; format: in vivo; parameters: key: 0: No injury; 1: Substantially no injury; 2: Slight injury; 3: Some injury; 4: Remarkable injury; 5: Almost all crops dead; details: rated 30 days after application
Method: A mixture consisting of 57 parts by weight of talc and 40 parts by weight of bentonite as carrier and 3 parts by weight of sodium alkylbenzenesulfonate as surfactant was pulverized and mixed uniformly to obtain a carrier for wettable powder. […] Then, rice seedlings of 2.5 leaf stage were transplanted in the soil. Water was pored into the pot so as to submerge the soil at a depth of 3 cm. The pot was placed in a greenhouse maintained at 20 to 25° C. for vegetation. […] After 30 days from the application of the herbicidal composition, the herbicidal effect and injury to the paddy rice were determined. […] The injury to crops was evaluated according to the following ratings: [table]

[3] = tested on: Scirpus juncoides; experiment: Submersion test, treatment 3 days after transplantation: herbicidal effect; format: in vivo; details: rated 30 days after application
Method: as §1
as §2, with “3” for “10”
as §3, §4, §5, §6

| melting point [°C] | Structure (SMILES) | Herbicidal effect Scirpus juncoides ([1]; application rate 100 g/ha) | Herbicidal effect Scirpus juncoides ([1]; application rate 200 g/ha) | Injury paddy rice ([2]; application rate 100 g/ha) | Injury paddy rice ([2]; application rate 200 g/ha) | Herbicidal effect Scirpus juncoides ([3]; application rate 100 g/ha) | Herbicidal effect Scirpus juncoides ([3]; application rate 200 g/ha) |
| --- | --- | --- | --- | --- | --- | --- | --- |
| 206.1 to 211.6 | CSC1Cc2c(ccc(C(=O)C3C(=O)CCCC3=O)c2C(F)(F)F)S1(=O)=O (centres unmarked) [Compound No. 11, 2-methylthio-4-trifluoromethyl-5-(1,3-dioxocyclohex-2-yl)carbonyl-2,3-dihydrobenzothiophene 1,1-dioxide] | 5 (90% or higher (almost completely dead)) | 5 (90% or higher (almost completely dead)) | 0 | 0 | 5 (90% or higher (almost completely dead)) | 5 (90% or higher (almost completely dead)) |
| 195.5 to 197 | CSC1Cc2c(Cl)c(C(=O)C3C(=O)CCCC3=O)cc(C)c2S1(=O)=O (centres unmarked) [Compound No. 43, 4-chloro-7-methyl-2-methylthio-5-(1,3-dioxocyclohex-2-yl)carbonyl-2,3-dihydrobenzothiophene 1,1-dioxide] | 5 (90% or higher (almost completely dead)) | 5 (90% or higher (almost completely dead)) | 0 | 0 | 5 (90% or higher (almost completely dead)) | 5 (90% or higher (almost completely dead)) |
| 143.2 to 154.8 | CCSC1Cc2c(Cl)c(C(=O)C3C(=O)CCCC3=O)cc(C)c2S1(=O)=O (centres unmarked) [Compound No. 44, 4-chloro-7-methyl-2-ethylthio-5-(1,3-dioxocyclohex-2-yl)carbonyl-2,3-dihydrobenzothiophene 1,1-dioxide] | 5 (90% or higher (almost completely dead)) | 5 (90% or higher (almost completely dead)) | 0 | 0 | 5 (90% or higher (almost completely dead)) | 5 (90% or higher (almost completely dead)) |

Second part, the compound before the results:

| Structure (SMILES) | melting point [°C] | Herbicidal effect Scirpus juncoides ([1]; application rate 100 g/ha) | Herbicidal effect Scirpus juncoides ([1]; application rate 200 g/ha) | Injury paddy rice ([2]; application rate 100 g/ha) | Injury paddy rice ([2]; application rate 200 g/ha) | Herbicidal effect Scirpus juncoides ([3]; application rate 100 g/ha) | Herbicidal effect Scirpus juncoides ([3]; application rate 200 g/ha) |
| --- | --- | --- | --- | --- | --- | --- | --- |
| COC(=O)C(C(=O)OC)C1=C(C(=O)c2ccc3c(c2Cl)CC(SC)S3(=O)=O)C(=O)CCC1 (centres unmarked) [Compound No. 40, 4-chloro-2-methylthio-5-[3-(bis-methoxycarbonyl)methyl-1-oxo-2-cyclohexen-2-yl]carbonyl-2,3-dihydrobenzothiophene 1,1-dioxide] | 150.3 to 150.5 | 4 (70% or higher but less than 90%) | 5 (90% or higher (almost completely dead)) | 0 | 0 | 4 (70% or higher but less than 90%) | 5 (90% or higher (almost completely dead)) |
| CSC1Cc2c(ccc(C(=O)C3C(=O)CCCC3=O)c2Cl)S1(=O)=O (centres unmarked) [Compound No. 1, 4-chloro-2-methylthio-5-(1,3-dioxocyclohex-2-yl)carbonyl-2,3-dihydrobenzothiophene 1,1-dioxide] | 174.7 to 175.1 | 5 (90% or higher (almost completely dead)) | 5 (90% or higher (almost completely dead)) | 0 | 0 | 5 (90% or higher (almost completely dead)) | 5 (90% or higher (almost completely dead)) |
